Where two headings read alike, the source gives them in different places.
Experiment: Plasma and tissue distribution in SD rats
Format: in vivo
Details: for Tissue/Plasma Ratio (AUCinf) / Kp: SD rat; for Kp: rat, oral, read-out: Tissue/Plasma Ratio (AUCinf); for Cmax / Tmax / half-life / AUC0-inf / AUC0-24 / AUC0-last: PO 10 mg/kg
Description: The following Example describes the methods and data used to evaluate the tissue distribution of TYK2 inhibitors following the administration of either compound 1 or compound 2.
Thirty (30, 15/sex) SD rats supplied by Beijing Vital River Laboratory Animal Technology Co., Ltd. were used in this study. The animals were confirmed to be healthy before being assigned to the study. The room (s) was controlled and monitored for relative humidity (targeted mean range 40% to 70%) and temperature (targeted mean range 20° C. to 26° C.) with 15 or above air changes/hour. The room was on a 12-hour light/dark cycle except when interruptions were necessitated by study activities. Fresh drinking water (reverses osmosis) was available to all animals, ad libitum. Certified animal diet from certified vendor was available to all animals, ad libitum.
Animals were weighed prior to dose administration to calculate the actual dose volume. The body weights were in the range from 245.39 to 276.33 g for males and 182.29 to 215.69 g for females on the first dosing day. The animals in Groups 1 and 2 received a single oral gavage administration of test compound 1. Cage-side observations for the general health condition and appearance of the animal were performed before and after dosing and at each time point of sample collection. Unusual observations were recorded throughout the duration of the study.
The vehicle was 0.5% methyl cellulose (4000 cps) in water. The formulation was prepared according to the following steps. Group 1: 25.95 mg of compound 1 was weighed into a glass vial. 5000 μL of vehicle was added into the vial and stirred for 30 min at 1700 rpm to get a homogenous opaque suspension. 5000 μL of vehicle was added into the vial and stirred for 10 min at 1700 rpm to get a homogenous opaque suspension. 5000 μL+5000 μL+5000 μL+924 μL of vehicle was added into the vial and stirred for 10 min at 1700 rpm to get a homogenous opaque suspension. Group 2: 81.66 mg of compound 1 was weighed into a glass vial. 5000 μL of vehicle was added into the vial and stirred for 30 min at 1700 rpm to get a homogenous opaque suspension. 5000 μL of vehicle was added into the vial and stirred for 10 min at 1700 rpm to get a homogenous opaque suspension. 10 mL+10 mL+10 mL+20 mL+10 mL+10 mL+1580 μL of vehicle was added into the vial and stirred for 10 min at 1700 rpm to get a homogenous opaque suspension.
Blood (about 0.2 mL) was collected at each time point via jugular vein puncture from each study animal. The actual time for each sample collection was recorded. The acceptable deviations on sampling time were ±1 min for the time points pre-dose through 1 hour post-dose, and +5% of the nominal time for time points after 1 hour post-dose.
All blood samples were transferred into commercial tubes containing K2-EDTA. After blood was collected, the samples were placed on wet ice and processed for plasma within 60 minutes of collection by centrifugation at approximately 4° C., 3200×g for 10 minutes, and then quickly frozen over dry ice and kept at −60° C. or lower until LC-MS/MS analysis.
Following terminal blood sample collection, animals were conducted CO2 euthanasia, the chest and abdominal cavities were opened carefully lengthwise using scissors to expose the internal organs in preparation of tissue perfusion. A needle was used to puncture a small hole into the left ventricle of the heart, and then clamped with a hemostat. […] Fluid (cold 1×PBS) was infused until the liver pales (typically 2-3 minutes). Following perfusion, 14 kinds of tissues (spleen, bone marrow, adipose, brain, heart, kidney, liver, lung, skin, small intestine, large intestine, eye, gonads, and bladder) were collected from each animal, respectively.
Each tissue was weighed and homogenized on wet ice using homogenizing buffer (MeOH/15 mM PBS 1:2) at the ratio of 1:9 (1 g tissue with 9 mL buffer). The tissue homogenate was kept at −60° C. or lower until LC-MS/MS analysis. […]

[1] = Sprague-Dawley, epididymis and testis, male SD rat, Epididymis & Testis
[2] = Sprague-Dawley, male SD rat, Eyeball (left and right)
[3] = Sprague-Dawley, male SD rat, Fat
[4] = Sprague-Dawley, male SD rat, Heart
[5] = Sprague-Dawley, male SD rat, Kidney (left and right)
[6] = Sprague-Dawley, male SD rat, Large intestine
[7] = Sprague-Dawley, plasma, female SD rat
[8] = Sprague-Dawley, plasma, male SD rat
[9] = female SD rat, Eyeball (left and right)
[10] = female SD rat, Kidney (left and right)

## C[C@@H](c1ccc(Nc2cc(Nc3ncccc3S(C)(=O)=O)ncn2)nc1)N1CC2(COC2)C1 [Compound 1, (S)—N^4-(5-(1-(2-oxa-6-azaspiro[3.3]heptan-6-yl)ethyl)pyridin-2-yl)-N^6-(3-(methylsulfonyl)pyridin-2-yl)pyrimidine-4,6-diamine]
Kidney
  Tissue/Plasma Ratio (AUCinf): 9.1
Large Intestine
  Tissue/Plasma Ratio (AUCinf): 13
Sprague-Dawley (SD), bone marrow / plasma, Bone Marrow
  Kp: 4.3
[1]
  Cmax: 350 ng/g
  Tmax: 480 min
Sprague-Dawley, adipose, Adipose
  Kp: 0.59
Sprague-Dawley, bladder, Bladder
  Kp: 5
Sprague-Dawley, eye, Eye
  Kp: 0.8
Sprague-Dawley, kidney, Kidney
  Kp: ~9
Sprague-Dawley, large intestine, Large Intestine
  Kp: ~13
Sprague-Dawley, liver, Liver
  Kp: 7.6
Sprague-Dawley, lung, Lung
  Kp: 2
Sprague-Dawley, skin, Skin
  Kp: 3.2
Sprague-Dawley, small intestine, Small Intestine
  Kp: 21
Sprague-Dawley, spleen, Spleen
  Kp: 5.4
[2]
  Cmax: 327 ng/g
  Tmax: 30 min
  half-life: 242 min
[3]
  Cmax: 464 ng/g
  Tmax: 30 min
  half-life: 185 min
[4]
  Cmax: 1260 ng/g
  Tmax: 30 min
  half-life: 139 min
[5]
  Cmax: 6140 ng/g
  Tmax: 30 min
  half-life: 227 min
[6]
  Cmax: 5180 ng/g
  Tmax: 480 min
[7]
  Cmax: 1180 ng/mL
  Tmax: 30 min
  half-life: 143 min
Sprague-Dawley, plasma, female SD rat, read-out: AUC0-inf
  AUC0-inf: 3610 ng·h/mL
[8]
  Cmax: 1370 ng/mL
  Tmax: 40 min
  half-life: 165 min
Sprague-Dawley, plasma, male SD rat, read-out: AUC0-inf
  AUC0-inf: 2920 ng·h/mL
Female SD rat, Bladder
  AUC0-24: 17454 ng·h/g
  AUC0-inf: 17693 ng·h/g
  AUC0-last: 17454 ng·h/g
  Cmax: 4150 ng/g
  Tmax: 120 min
  half-life: 217 min
Female SD rat, Bone Marrow
  AUC0-24: 17781 ng·h/g
  AUC0-inf: 17791 ng·h/g
  AUC0-last: 15823 ng·h/g
  Cmax: 3840 ng/g
  Tmax: 30 min
  half-life: 151 min
[9]
  AUC0-24: 3253 ng·h/g
  AUC0-inf: 3348 ng·h/g
  AUC0-last: 3253 ng·h/g
  Cmax: 449 ng/g
  Tmax: 120 min
  half-life: 271 min
Female SD rat, Fat
  AUC0-24: 1725 ng·h/g
  AUC0-last: 1725 ng·h/g
  Cmax: 417 ng/g
  Tmax: 120 min
Female SD rat, Heart
  AUC0-24: 5608 ng·h/g
  AUC0-inf: 5627 ng·h/g
  AUC0-last: 4754 ng·h/g
  Cmax: 1280 ng/g
  Tmax: 30 min
  half-life: 173 min
[10]
  AUC0-24: 36323 ng·h/g
  AUC0-inf: 36373 ng·h/g
  AUC0-last: 36323 ng·h/g
  Cmax: 7800 ng/g
  Tmax: 30 min
  half-life: 148 min
Female SD rat, Large intestine
  AUC0-24: 39634 ng·h/g
  AUC0-last: 39634 ng·h/g
  Cmax: 4670 ng/g
  Tmax: 480 min
Female SD rat, Liver
  AUC0-24: 29588 ng·h/g
  AUC0-inf: 29655 ng·h/g
  AUC0-last: 29588 ng·h/g
  Cmax: 6310 ng/g
  Tmax: 30 min
  half-life: 160 min
Female SD rat, Lung
  AUC0-24: 8773 ng·h/g
  AUC0-last: 8773 ng·h/g
  Cmax: 2180 ng/g
  Tmax: 120 min
Female SD rat, Ovary & Uterus
  AUC0-24: 5024 ng·h/g
  AUC0-inf: 5028 ng·h/g
  AUC0-last: 4408 ng·h/g
Female SD rat, Skin
  AUC0-24: 3803 ng·h/g
  AUC0-last: 3803 ng·h/g
  Cmax: 893 ng/g
  Tmax: 120 min
Female SD rat, Small intestine
  AUC0-24: 59880 ng·h/g
  AUC0-inf: 59932 ng·h/g
  AUC0-last: 59880 ng·h/g
  Cmax: 12300 ng/g
  Tmax: 30 min
  half-life: 138 min

— patent US20260048051A1, “TREATMENT OF INFLAMMATORY BOWEL DISEASE” (Atomwise Inc., priority 2024, published 2026)
